This is an account of results in patent US11149031B2, “Substituted N-(3-fluoropropyl)-pyrrolidine compounds, processes for their preparation and therapeutic uses thereof” (SANOFI, priority 2016, dated 2021).

Like-named read-outs stand apart in the source and are kept apart here.

For one assay, the target named is ERα in MCF7 cells (Homo sapiens (Human), UniProt P03372). Briefly: Test C: estrogen receptor degradation activity, ERα in cell western assay in MCF7 cells. The format is cell-based. The settings on record: for DC50: 4 hours post compound addition, ERα in cell western, read-out: Degradation IC50; for % Degradation at 3 μM: 4 hours, relative to fulvestrant. The gist of the method: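 MCF7 cells in phenol red-free MEM alpha with 5% charcoal-dextran stripped FBS were treated 4 h with compound (9-point 1:5 dilutions, 3–0.000018 μM final; fulvestrant 0.1 μM as positive control). Fixed cells were immunostained for ERα (Alexa 488) and counterstained with Syto-64 for DNA.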

For assay [1], the target named is His6-ERα298-554 WT (ERα ligand-binding domain) (Homo sapiens (Human), UniProt P03372). Briefly: Test A: biochemical antagonist activity, LanthaScreen TR-FRET ERα coactivator assay, WT. The note with it: asterisk (*): protocol using 10 nM estradiol; read-out: Antagonism WT IC50. The gist of the method: (§1)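 Compounds were added to receptor LBD (0.5 nM), terbium-labelled His6 antibody (0.5 nM), PGC1a coactivator peptide (250 nM) and estradiol at 3 nM or 10 nM. After incubating overnight at room temperature, the 520:495 nm ratio gave IC50 values by four-parameter logistic regression.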
On the technique in general: In TR-FRET formats the signal depends on donor and acceptor labels being close together.

Assay [2] concerns the target His6-ERα298-554 D538G mutant (ERα ligand-binding domain) (Homo sapiens (Human), UniProt P03372, D538G). Briefly: Test A: biochemical antagonist activity, LanthaScreen TR-FRET ERα coactivator assay, D538G mutant. The note with it: asterisk (*): protocol using 10 nM estradiol; read-out: Antagonism D538G IC50. The gist of the method:
as §1

For assay [3], the target named is His6-ERα298-554 Y537S mutant (ERα ligand-binding domain) (Homo sapiens (Human), UniProt P03372, Y537S). Briefly: Test A: biochemical antagonist activity, LanthaScreen TR-FRET ERα coactivator assay, Y537S mutant. The note with it: asterisk (*): protocol using 10 nM estradiol; read-out: Antagonism Y537S IC50. The gist of the method:
as §1

Assay [4] relates to MCF7 cells expressing mutant estrogen receptor Asp 538 Gly. Briefly: Test B: cell proliferation/viability assay (CellTiter-Glo) on MCF7 Asp 538 Gly mutant. It is filed as cell-based. The note with it: MCF7 cells expressing ER Asp 538 Gly mutant, 7 days of compound exposure, read-out: proliferation MCF7 D538G IC50. The text has this: (§2) Test B: Cell Proliferation/Viability Assay on MCF7 (Breast Tumor Cells) WT and Mutants Cell Lines
(§3) Test B involves measuring the in vitro proliferation activity of the compounds of the invention by analyzing the viability of the tumor cells.
(§4) The measurements of the viability were made using a breast cancer cell viability assay as described hereunder.
(§5) MCF7 cells expressing (and dependent) on mutants estrogen receptor Tyr 537 Ser or Asp 538 Gly were generated by transfection of MCF7 parental cells (ATCC) with expression vectors coding for different mutants of estrogen receptor Tyr 537 Ser or Asp 538 Gly. The cells were first selected by antibiotic (related to vector expression) and then selected for their growth dependence on estrogen receptor based on their ability to grow in vitro in absence of estradiol (parental cell line die in absence of estradiol).
(§6) MCF7 cells (ATCC) or MCF7 cells expressing (and dependent) on mutants estrogen receptor Tyr 537 Ser or Asp 538 Gly were seeded in 384 wells microplate at concentration of >999 cells/30 μL per well in red phenol free MEM medium containing 5% charcoal dextran striped FBS. The following day, 9 points serial 1:5 dilution of each compound were added to the cells in 20 μL at final concentrations ranging from 3-0.000001 μM. After 7 days of compound exposure, 50 μL of CellTiter-Glo (promega) was added to the cells and relative luminescence arbitrary units (RLUs) were determined in luminescence plate reader (Envision device). CellTiter-Glo was added to 50 μL medium without cells to determine the background signal.
(§7) The percent of viability of each sample was determined as follows: (RLU sample−RLU background/RLU untreated−RLU background)*100=% viability.
Background: In ATP-based viability assays light output follows the ATP content of the culture.

Assay [5] relates to MCF7 cells expressing mutant estrogen receptor Tyr 537 Ser. Briefly: Test B: cell proliferation/viability assay (CellTiter-Glo) on MCF7 Tyr 537 Ser mutant. The format is cell-based. The note with it: MCF7 cells expressing ER Tyr 537 Ser mutant, 7 days of compound exposure, read-out: proliferation MCF7 Y537S IC50.
Description: as §2, §3, §4, §5, §6, §7

Assay [6] concerns MCF7 cells (breast tumor cells) WT. Briefly: Test B: cell proliferation/viability assay (CellTiter-Glo) on MCF7 WT. The format is cell-based. The note with it: 7 days of compound exposure. The protocol:
as §2, §3
The measurements of the viability were made using a breast cancer cell viability assay as described hereunder. […]
as §6, §7

Chain of His6-ERα298-554 WT (ERα ligand-binding domain) (P03372 298-554): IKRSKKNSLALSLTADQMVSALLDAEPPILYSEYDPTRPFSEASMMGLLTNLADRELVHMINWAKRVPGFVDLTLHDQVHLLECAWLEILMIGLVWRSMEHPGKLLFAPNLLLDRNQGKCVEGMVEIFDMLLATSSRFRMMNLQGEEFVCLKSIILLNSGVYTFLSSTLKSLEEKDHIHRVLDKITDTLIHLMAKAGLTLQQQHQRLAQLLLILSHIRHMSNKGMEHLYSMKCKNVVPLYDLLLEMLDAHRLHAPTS
Chain of His6-ERα298-554 D538G mutant (ERα ligand-binding domain) (P03372 298-554 D538G): as the sequence (P03372 298-554) above, with D241G counted along it
Chain of His6-ERα298-554 Y537S mutant (ERα ligand-binding domain) (P03372 298-554 Y537S): as the sequence (P03372 298-554) above, with Y240S counted along it
Chain of ERα in MCF7 cells (P03372 whole entry): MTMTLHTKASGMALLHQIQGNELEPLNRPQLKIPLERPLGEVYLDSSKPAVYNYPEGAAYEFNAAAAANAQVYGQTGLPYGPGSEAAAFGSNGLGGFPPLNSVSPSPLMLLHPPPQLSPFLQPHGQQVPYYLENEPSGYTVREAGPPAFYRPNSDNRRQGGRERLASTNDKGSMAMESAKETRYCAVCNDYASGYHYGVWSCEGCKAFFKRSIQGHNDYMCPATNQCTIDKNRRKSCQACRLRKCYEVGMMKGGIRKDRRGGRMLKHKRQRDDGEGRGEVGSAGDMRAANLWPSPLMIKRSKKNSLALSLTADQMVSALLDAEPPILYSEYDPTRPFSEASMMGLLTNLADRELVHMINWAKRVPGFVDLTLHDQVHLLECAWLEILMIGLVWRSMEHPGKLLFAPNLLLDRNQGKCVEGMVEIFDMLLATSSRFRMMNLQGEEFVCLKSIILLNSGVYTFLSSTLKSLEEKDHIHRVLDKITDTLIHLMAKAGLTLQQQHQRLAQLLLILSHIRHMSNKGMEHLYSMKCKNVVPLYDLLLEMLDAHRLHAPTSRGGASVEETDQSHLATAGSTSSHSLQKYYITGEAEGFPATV

As to `Cc1ccc(C2=C(c3ccc(O[C@H]4CCN(CCCF)C4)cc3)c3ccc(O)cc3[S+]([O-])C2)c(F)c1` (single isomer, unassigned) [Example 70], at ERα in MCF7 cells, the DC50 stood at 25 nM. Also, the “% Degradation at 3 μM” value at ERα in MCF7 cells is listed as 73%. Besides, the IC50 in assay [1] was 1660 nM; in assay [2] it was over 4000 nM; in assay [3], over 4000 nM; in assay [4] (Homo sapiens, MCF7, 168 h), 97 nM; in assay [5] (Homo sapiens, MCF7, 168 h) it was 478 nM; in assay [6], 64 nM.
`Cc1ccc(C2=C(c3ccc(O[C@H]4CCN(CCCF)C4)cc3)c3ccc(O)cc3[S+]([O-])C2)c(F)c1` (single isomer, unassigned) [Example 71]: at ERα in MCF7 cells, the DC50 came out at 11 nM. On ERα in MCF7 cells, the “% Degradation at 3 μM” value is listed as 75%. Moreover, the IC50 in assay [1] is 2740 nM; in assay [2], over 4000 nM; in assay [3] it was over 4000 nM; in assay [4], 88 nM; in assay [5], 414 nM; in assay [6], 12 nM.
As for `[O-][S+]1CCC(c2ccc(OC(F)(F)F)cc2)=C(c2ccc(O[C@H]3CCN(CCCF)C3)cc2)c2ccc(O)cc21` (single isomer, unassigned) [Example 226], the DC50 at ERα in MCF7 cells turned out to be 103 nM. In addition, the “% Degradation at 3 μM” value at ERα in MCF7 cells amounted to 93%. For the same compound, the IC50 in assay [1] is over 4000 nM; in assay [2] it was over 4000 nM; in assay [3], over 4000 nM; in assay [4] it was 288 nM; in assay [5], over 999 nM; in assay [6] it was 87 nM.
On to `[O-][S+]1CCC(c2ccc(OC(F)(F)F)cc2)=C(c2ccc(O[C@H]3CCN(CCCF)C3)cc2)c2ccc(O)cc21` (single isomer, unassigned) [Example 227], for which the DC50 at ERα in MCF7 cells stood at 4 nM. Also, the “% Degradation at 3 μM” value on ERα in MCF7 cells is given as 90%. Besides, the IC50 turned out to be 392 nM in assay [1]; 3330 nM in assay [2]; 3500 nM in assay [3]; 9 nM in assay [4]; 134 nM in assay [5]; 6 nM in assay [6].
`CC1Cc2c([nH]c3ccccc23)C(c2c(F)cc(O[C@H]3CCN(CCCF)C3)cc2F)N1CC(C)(C)F` (single isomer, unassigned) [Example 256]: the DC50 on ERα in MCF7 cells came out at 0.2 nM. Further, the “% Degradation at 3 μM” value on ERα in MCF7 cells is 91%. Further, the IC50 in assay [1] worked out at 6 nM; in assay [2], 120 nM; in assay [3], 101 nM; in assay [4] it was 0.7 nM; in assay [5], 2 nM; in assay [6] it was 0.1 nM.
Consider `Oc1ccc2c(c1)CCC(c1ccc(OC(F)(F)F)cc1)=C2c1ccc(O[C@H]2CCN(CCCF)C2)cc1` [Example 12, 5-[4-[(3S)-1-(3-fluoropropyl)pyrrolidin-3-yl]oxyphenyl]-6-[4-(trifluoromethoxy)phenyl]-7,8-dihydronaphthalen-2-ol], for which the IC50 in assay [4] (Homo sapiens, MCF7, 168 h) stood at 5 nM; in assay [5] (Homo sapiens, MCF7, 168 h), 9 nM; in assay [6] (Homo sapiens, MCF7, 168 h) it was 1 nM.
For `Oc1ccc2c(c1)CCC(c1ccc(F)cc1Cl)=C2c1ccc(O[C@H]2CCN(CCCF)C2)cc1` [Example 13, 6-(2-chloro-4-fluoro-phenyl)-5-[4-[(3S)-1-(3-fluoropropyl)pyrrolidin-3-yl]oxyphenyl]-7,8-dihydronaphthalen-2-ol] the same measures were 3 nM, 8 nM and 0.4 nM.
For `Oc1ccc2c(c1)CCC(c1ccc(Cl)cc1Cl)=C2c1ccc(O[C@H]2CCN(CCCF)C2)cc1` [Example 14, 6-(2,4-dichlorophenyl)-5-[4-[(3S)-1-(3-fluoropropyl)pyrrolidin-3-yl]oxyphenyl]-7,8-dihydronaphthalen-2-ol] the same measures were 1 nM, 6 nM and 0.5 nM.
For `Oc1ccc(C2=C(c3ccc(O[C@H]4CCN(CCCF)C4)cc3)c3ccc(O)cc3CC2)cc1` [Example 15, 5-[4-[(3S)-1-(3-fluoropropyl)pyrrolidin-3-yl]oxyphenyl]-6-(4-hydroxyphenyl)-7,8-dihydronaphthalen-2-ol] the same measures were 25 nM, 30 nM and 0.2 nM.
On to `Cc1ccc(C2=C(c3ccc(O[C@H]4CCN(CCCF)C4)cc3)c3ccc(O)cc3SC2)c(Cl)c1` [Example 58, 3-(2-chloro-4-methyl-phenyl)-4-[4-[(3S)-1-(3-fluoropropyl)pyrrolidin-3-yl]oxyphenyl]-2H-thiochromen-7-ol], for which the IC50 in assay [4] (Homo sapiens, MCF7, 168 h) was 0.8 nM; in assay [5] (Homo sapiens, MCF7, 168 h), 5 nM; in assay [6] (Homo sapiens, MCF7, 168 h), 2 nM.
The corresponding values for `Cc1nc(C)c(C2=C(c3ccc(O[C@H]4CCN(CCCF)C4)cc3)c3ccc(O)cc3SC2)s1` [Example 68, 3-(2,4-dimethylthiazol-5-yl)-4-[4-[(3S)-1-(3-fluoropropyl)pyrrolidin-3-yl]oxyphenyl]-2H-thiochromen-7-ol] are 7 nM, 125 nM and 14 nM.
With `CC(C)Oc1ccc(C2=C(c3ccc(O[C@H]4CCN(CCCF)C4)cc3)c3ccc(O)cc3OCC2)c(C(F)(F)F)c1.Cl` [Example 150, 5-[4-[(3S)-1-(3-fluoropropyl)pyrrolidin-3-yl]oxyphenyl]-4-[4-isopropoxy-2-(trifluoromethyl)phenyl]-2,3-dihydro-1-benzoxepin-8-ol hydrochloride], the DC50 at ERα in MCF7 cells was 4 nM. Moreover, the “% Degradation at 3 μM” value at ERα in MCF7 cells is 82%. Further, the IC50 in assay [4] (Homo sapiens, MCF7, 168 h) stood at 2 nM; in assay [5] (Homo sapiens, MCF7, 168 h), 14 nM; in assay [6] (Homo sapiens, MCF7, 168 h), 0.4 nM.
The corresponding values for `Oc1ccc2c(c1)SCCC(c1ccc(Cl)cc1Cl)=C2c1ccc(O[C@H]2CCN(CCCF)C2)cc1` [Example 166, 4-(2,4-dichlorophenyl)-5-[4-[(3S)-1-(3-fluoropropyl)pyrrolidin-3-yl]oxyphenyl]-2,3-dihydro-1-benzothiepin-8-ol] are 2 nM, 90%, 1 nM, 8 nM and 0.2 nM.
For `O=C(O)c1ccc2c(c1)SCCC(c1ccc(Cl)cc1Cl)=C2c1ccc(O[C@H]2CCN(CCCF)C2)cc1` [Example 203, 4-(2,4-dichlorophenyl)-5-[4-[(3S)-1-(3-fluoropropyl)pyrrolidin-3-yl]oxyphenyl]-2,3-dihydro-1-benzothiepine-8-carboxylic acid] the same measures were 0.6 nM, 93%, 1 nM, 13 nM and 0.8 nM.
The corresponding values for `Oc1ccc2c(c1)SCCC(c1ccc(Cl)cc1Cl)=C2c1ccc(O[C@H]2CCN(CCCF)C2)nc1` [Example 205, 4-(2,4-dichlorophenyl)-5-[6-[(3S)-1-(3-fluoropropyl)pyrrolidin-3-yl]oxy-3-pyridyl]-2,3-dihydro-1-benzothiepin-8-ol] are 0.4 nM, 84%, 0.2 nM, 3 nM and 0.2 nM.
On to `Oc1ccc2c(c1)CCCC(c1ccc(Cl)c(F)c1)=C2c1ncc(O[C@H]2CCN(CCCF)C2)cn1` [Example 254, 6-(4-chloro-3-fluoro-phenyl)-5-[5-[(3S)-1-(3-fluoropropyl)pyrrolidin-3-yl]oxypyrimidin-2-yl]-8,9-dihydro-7H-benzo[7]annulen-2-ol], for which the IC50 came to 17 nM in assay [4] (Homo sapiens, MCF7, 168 h); 129 nM in assay [5] (Homo sapiens, MCF7, 168 h); 16 nM in assay [6] (Homo sapiens, MCF7, 168 h).
